Experimental findings from EPA's ToxValDB 9.5 (doi:10.2903/j.efsa.2013.3373) are described below.

“And” between values parts separate entries of the source, which are not always exact repeats. Equal entries are not always repeated.

In series [1] the test system is Anas platyrhynchos.
Series [2] concerns Apis mellifera. As to conditions: acute, duration: 96 hours, mortality.
Series [3] has as its system Bibionidae. As to conditions: chronic/long-term; duration: 28 days; development.
Series [4] relates to Canidae. As to conditions: subchronic; duration: 3 months; oral; gavage; Dog Other; organ weight.
The test system of series [5] is Chironomus tentans. As to conditions: acute; duration: 10 days; mortality.
For series [6], the system named is Colinus virginianus. As to conditions: for LD50: acute, oral, mortality.
Series [7] relates to Cyprinodon variegatus. As to conditions: chronic/long-term; duration: 41 days; mortality.
For series [8], the system named is Danio rerio. As to conditions: chronic; duration: 148 days.
Series [9] has as its system Daphnia magna. As to conditions: chronic/long-term; duration: 21 days; reproduction.
Series [10] deals with Mus musculus. As to conditions: acute, oral, mortality.
In series [11] the test system is Neomysis kadiakensis. As to conditions: chronic/long-term; duration: 28 days; reproduction.
For series [12], the system named is Oncorhynchus mykiss. As to conditions: mortality.
In series [13] the test system is Rattus norvegicus. As to conditions: for NOAEL: reproduction developmental.
Series [14] concerns Tagia sp.

The NOAEL is the highest tested level that showed no adverse finding. With `N#Cc1ccc(CC(=NNC(=O)Nc2ccc(OC(F)(F)F)cc2)c2cccc(C(F)(F)F)c2)cc1` (mixture of isomers) [Metaflumizone], the LD50 in [1] (acute, oral, unspecified, mortality) is more than 2020 mg/kg-day; in series [2] (dermal), 1.65 µg/piece; in series [2] (oral, unspecified), 2.43 µg/piece; in series [6] (diet) it was 306 mg/kg-day; in series [6] it was more than 2020 mg/kg-day; in series [10] (duration: 7 days, diet), 101 mg/kg-day. Also, the LD50 was more than 5000 mg/kg-day in [10] and more than 5000 mg/kg-day in series [13] (acute, oral, mortality). Also, the NOEL in [1] (reproductive, reproduction) was < 4.4 mg/kg-day and 1.8 mg/kg-day; in series [6] (reproduction developmental, reproduction), 0.53 mg/kg-day. For the same compound, the NOEC is 2.56 µg/L in series [3]; 1.15 µg/L in [7]; 0.015 mg/L in series [8]; 1.47 µg/L in series [9]; 0.654 µg/L in [11]; 1.47 µg/L in [12] (chronic/long-term, duration: 93 days). Also, in series [14] (chronic/long-term), the NOEC is 6.92 mg/kg. Also, the values for the NOAEL in [4], in [13] (body weight) and in [13] (reproduction) were 6 mg/kg-day, 40 mg/kg-day and 20 mg/kg-day, respectively. Moreover, the LC50 was 1800 µg/kg in series [5]; more than 0.228 µg/mL in series [12] (acute, duration: 96 hours); more than 1000 mg/kg in [14] (acute, duration: 14 days, mortality).
